Data as given in patent publication US20110166066A1, “CATESTATIN (CST) AND ITS VARIANTS FOR TREATMENT OF CARDIOVASCULAR AND METABOLIC DISORDERS” (priority 2008, published 2011).
No end group written: not given here.

Tests used:
[1] = tested on: WT and Chga knockout (KO) mice; assay: BP and HR by telemetry in immobilization stress, conscious mice; type: in vivo
Text: Animals. Chga knockout (KO) mice and their wild-type (WT) littermates were generated as described (13). All animals were housed on a 12 hr light dark cycle and fed a standard rodent chow. The Animal Care and Use Committee of University of California at San Diego approved all protocols for animal use and euthanasia in accordance with National Institute of Health guidelines. Both WT and KO mice (5-6 month old) in this study were from mixed (129 SvJ and C57BL/6) genetic background.
Conscious mice. Measurement of BP and HR in immobilization stress-induced telemetered mice: BP & HR were measured by telemetry as described previously (13). The experiments were initiated 10 days after the surgery. Immobilization stress was initiated by placing mice in restrainer (Braintree Scientific Inc, Braintree, Mass.) at 10:00 AM and kept for 2 hrs for continuous recording of BP and HR by telemetry followed by recovery from stress in home cages for 2 hrs. CST was injected (40 μg/g bw ip) 30 minutes before stress induction to explore the role of CST in stress response.

[2] = tested on: PLN (phospholamban) Ser16; assay: Immunoblot of phosphorylated PLN in WT-CST perfused hearts; set-up: species or system rat; details: 110 nM
Procedure: Cardiac signaling—Hearts were perfused with or without 110 nM WT-Cts as before. At the end of experiment hearts were snap frozen under liquid nitrogen and homogenized with 1 ml of ice cold 0.2 M sucrose, Tris maleate (pH 7.0) buffer supplemented with 2 mM EDTA, pH 8.0, 1 mM sodium orthovanadate, 10 mM sodium pyrophosphate, 1 mM phenylmethylsulfonyl fluoride, 10 μg/ml leupeptin, 10 μg/ml aprotinin and 0.1 mM 3-isobutyl-1-methylxanthine. SR membrane fractions were isolated from cytosolic proteins as described before (27). Protein content was determined by Bradford assay (BIO-RAD) and 100 μg of cytosolic protein was subjected to SDS-PAGE immunoblot analysis for phosphorylated-ERK, total ERK (P-ERK and T-ERK; Santa Cruz, Calif.). […]
Statistics—Data are expressed as the mean±SEM. Curve fitting was accomplished in the program Kaleidagraph (Synergy Software, Reading, Pa.). […] For analysis of phosphorylated proteins, levels were quantified using Bio-Rad QuantifyOne and volumes of phosphorylated proteins were divided by the levels of non-phosphorylated proteins to calculate fold activation. Stimulation of protein activity was expressed as fold increase over vehicle-treated control. The means and S.E.M. were calculated for each treatment. […]

[3] = tested on: Langendorff perfused rat heart; assay: ET-1 stimulated Langendorff heart preparations
Procedure: ET-1 stimulated preparations—Hearts, stabilized for 20 min with KHs, were perfused for 10 min with ET-1 (1 nM) and then washed-out with KHs. After returning to control conditions, each heart was perfused with KHs containing a single concentration of either WT-Cts (33 nM), P370L-Cts (110 nM) or G364S-Cts (200 nM) plus 1 nM ET-1 for a further 10 min.

[4] = tested on: Langendorff perfused rat heart; assay: WT-CST inotropism/lusitropism in presence of adrenergic, cholinergic, Gi/o and NO-pathway inhibitors (Langendorff heart); details: for Negative inotropism with muscarinic receptor antagonist: WT-CST 110 nM + Atropine 10 nM; for Negative inotropism with β-adrenoceptor antagonist: WT-CST 110 nM + Nadolol 10 nM; for Negative inotropism with α-adrenoceptor antagonist: WT-CST 110 nM + Phentolamine 100 nM; for Negative inotropism with Gi/o protein inhibition: WT-CST 110 nM after PTx 0.01 nM; for LVP change: preliminary experiments
Procedure: Adrenergic and cholinergic receptors involvement—To obtain information on the involvement of β1/β2, α-adrenergic receptors (ARs) and cholinergic receptors (AchR) on the inotropic and lusitropic effects induced by WT-Cts, cardiac preparations, stabilized for 20 min with KHs, were perfused with Nadolol (10 nM) or Phentolamine (100 nM) or Atropine (10 nM) for 10 min and then washed-out with KHs. After returning to control conditions, each heart was perfused with KHs containing a single concentration of Cts WT (110 nM) plus Nadolol (10 nM) or Phentolamine (100 nM) or Atropine (10 nM) for an additional 10 min.
Involvement of inhibitory G-protein (Gi/o)—To evaluate the involvement of inhibitory G-proteins in the cardiac action of WT-Cts, hearts were preincubated for 60 min with KHs enriched with pertussis toxin (PTx: 0.01 nM) and then exposed for 10 min to WT-Cts (110 nM). PTx catalyzes ADP-ribosylation of Gi/o alpha-subunit, uncoupling Gi-membrane receptor interaction.
NO-pathway inhibitor stimulated preparations—Hearts were stabilized for 20 min with KHs, perfused with 110 nM WT-Cts for 10 min and then the peptide was washed-out with KHs. After returning to control conditions, each heart was perfused with KHs containing either the NO scavenger PTIO, the non-specific NOS inhibitor L-NMMA, a soluble guanylate cyclase inhibitor (ODQ) or a protein kinase G blocker (KT5823). Subsequently, the hearts were exposed to the specific signaling inhibitor plus 110 nM of WT-Cts.

## SSMKLSFRARAYGFRGPGPQL [WT-CST, catestatin]
[1]; KO mice
  Heightened HR responses to stress: abolished
  SBP after 1 h of recovery from the stress: brought SBP to WT level
[1]; KO mice, 40 μg/g bw ip
  Basal SBP: decreased
  Stress-induced increments in SBP: attenuated
[1]; KO mice, stress and recovery
  HR AUC: 143340±1889
  SBP AUC: 26639±399
[1]; WT and KO mice
  Basal or stress-induced increments in DBP: no significant effect
[1]; WT mice
  Basal and stress-induced increase in HR: no effect
[1]; WT mice, 40 μg/g bw ip
  Basal SBP: no effect
[1]; WT mice, 40 μg/g bw ip 30 min before stress
  Attenuation of stress-induced increments in SBP: 7.1 mmHg
[2]
  Phosphorylation of PLN at Ser16: inhibited
[3]; ET-1 1 nM, WT-CST 33 nM, P370L-CST 110 nM, G364S-CST 200 nM
  ET-1 induced positive inotropism: blocked
[3]; higher doses (10 nM)
  Effect on LVP and +(LVdP/dT)max: decreased
[4]
  Negative inotropism with muscarinic receptor antagonist: remained unaffected
  Negative inotropism with β-adrenoceptor antagonist: abolished
  Negative inotropism with α-adrenoceptor antagonist: reduced
  Negative inotropism with Gi/o protein inhibition: abolished
[4]; listed as WT-Cts
  Negative inotropism with muscarinic receptor antagonist: Unchanged
  Negative inotropism with β-adrenoceptor antagonist: Abolished
  Negative inotropism with α-adrenoceptor antagonist: Reduced
  Negative inotropism with Gi/o protein inhibition: Abolished
[4]; WT-CST 110 nM + KT5823 0.1 μM
  CST-induced changes in cardiac performance with PKG inhibition by KT5823: failed to affect
[4]; WT-CST 110 nM + L-NMMA 10 μM
  Negative inotropism and lusitropism with NOS inhibition by L-NMMA: abolished
[4]; WT-CST 110 nM + ODQ 10 μM
  Negative inotropism and lusitropism with sGC blockade by ODQ: abolished
[4]; WT-CST 110 nM + PTIO 10 μM
  Negative inotropism and lusitropism with NO removal by PTIO: abolished
[4]; WT-CST 110 nM, Table 1
  Negative inotropism with eNOS-NO-cGMP-PKG pathway inhibition: Abolished
[4]; WT-Cts + L-NIO (eNOS selective inhibitor)
  LVP change: 5.04±1.69
[4]; WT-Cts + Vinyl-L-NIO (nNOS selective inhibitor)
  LVP change: −13.14±2.25
[4]; WT-Cts alone
  LVP change: −18.19±2.27
